Patent US20240058336A1 (IMPACT BIOMEDICINES, INC., priority 2020, published 2024)
Structures can show the parent of a compound that is named as a salt.

What was measured:
nausea and vomiting = test: Ondansetron prophylaxis in a previous Phase 1 fedratinib study; format: in vivo, human; conditions: prophylaxis before fedratinib
Source text: A subsequent oral dose(s) of ondansetron may be given, as necessary, in accordance with the United States Package Insert (USPI).

[1] = Fedratinib pharmacokinetics in healthy subjects; format: in vivo, human
[2] = Tolerability of single fedratinib doses in healthy subjects; format: in vivo, human
[3] = system: CYP3A4, CYP2C19 and flavin-containing monooxygenases (FMOs); test: In vitro evaluations of fedratinib metabolism; format: in vitro ADME
FLT3 kinase = target: T1, FLT3 kinase (Homo sapiens, UniProt P36888); conditions: cited from earlier work
T1 sequence (P36888 27-993): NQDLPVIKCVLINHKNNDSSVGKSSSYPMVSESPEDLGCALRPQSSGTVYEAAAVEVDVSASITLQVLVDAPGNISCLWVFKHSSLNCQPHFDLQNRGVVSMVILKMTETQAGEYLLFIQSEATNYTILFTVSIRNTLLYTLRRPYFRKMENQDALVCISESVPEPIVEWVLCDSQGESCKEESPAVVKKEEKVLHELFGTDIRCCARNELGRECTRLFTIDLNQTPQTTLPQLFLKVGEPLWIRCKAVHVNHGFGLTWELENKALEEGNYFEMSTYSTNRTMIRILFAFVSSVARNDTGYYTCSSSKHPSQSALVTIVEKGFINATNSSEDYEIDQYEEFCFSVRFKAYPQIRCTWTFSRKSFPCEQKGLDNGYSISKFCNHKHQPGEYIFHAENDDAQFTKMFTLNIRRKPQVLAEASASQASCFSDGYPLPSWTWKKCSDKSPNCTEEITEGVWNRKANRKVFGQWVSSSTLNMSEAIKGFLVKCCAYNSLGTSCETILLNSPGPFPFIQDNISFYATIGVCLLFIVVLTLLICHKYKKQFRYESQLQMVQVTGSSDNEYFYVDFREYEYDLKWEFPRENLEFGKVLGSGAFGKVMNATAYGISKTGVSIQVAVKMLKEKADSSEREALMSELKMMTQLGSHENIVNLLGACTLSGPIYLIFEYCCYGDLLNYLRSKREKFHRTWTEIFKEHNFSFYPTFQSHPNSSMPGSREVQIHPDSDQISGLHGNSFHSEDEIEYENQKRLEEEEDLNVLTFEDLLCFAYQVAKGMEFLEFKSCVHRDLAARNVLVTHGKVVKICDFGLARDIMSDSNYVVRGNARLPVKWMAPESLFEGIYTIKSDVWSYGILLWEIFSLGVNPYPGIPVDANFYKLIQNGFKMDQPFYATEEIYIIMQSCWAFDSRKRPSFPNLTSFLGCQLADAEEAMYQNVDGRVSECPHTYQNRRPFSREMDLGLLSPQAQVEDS

[4] = system: patient-derived cell lines expressing JAK2V617F and cells engineered to express WT JAK2 or JAK2V617F; conditions: cited from earlier work
JAK2V617F-driven MPNs = conditions: mouse models; cited from earlier work

SMILES: Cc1nccn1CC1CCc2c(c3ccccc3n2C)C1=O (stereo not shown) [Ondansetron]
- nausea and vomiting (nausea and vomiting): reduce nausea and vomiting

SMILES: Cc1cnc(Nc2ccc(OCCN3CCCC3)cc2)nc1Nc1cccc(S(=O)(=O)NC(C)(C)C)c1 [fedratinib, N-tert-butyl-3-[(5-methyl-2-{[4-(2-pyrrolidin-1-ylethoxy)phenyl]amino}pyrimidin-4-yl)amino]benzenesulfonamide dihydrochloride monohydrate]
- fraction of total fedratinib AUC captured ([1]; by 168 hours postdose, healthy subjects): approximately 90%
- PK linearity ([1]; clinically relevant dose range, single-dose PK predicts multiple-dose PK): linear
- half-life ([1]; human, in vivo, healthy subjects, read-out: effective half-life (converted)): ~1800 min
- single dose tolerated [2]: up to 680 mg
- metabolizing enzymes [3]: metabolized by multiple CYPs, with the predominant contribution from CYP3A4, and with lesser contributions from CYP2C19 and flavin-containing monooxygenases (FMOs)
- inhibition of FLT3 kinase (FLT3 kinase): inhibits
- STAT phosphorylation [4]: reduced phosphorylation of STATS/STATS
- apoptosis [4]: increased apoptosis
- cell proliferation [4]: inhibited cell proliferation
- STAT phosphorylation (JAK2V617F-driven MPNs): blocked phosphorylation of STATS/5
- disease-associated symptoms (leukopenia, anemia, splenomegaly, fibrosis) (JAK2V617F-driven MPNs): improved disease-associated symptoms
- survival (JAK2V617F-driven MPNs): increased survival
